According to patent US20230348362A1, “LIPID COMPOUNDS AND LIPID NANOPARTICLE COMPOSITIONS” (Suzhou Abogen Biosciences Co., Ltd., priority 2021, published 2023):

How the values were obtained:
Format in all cases: physicochemical
[1] = Lipid nanoparticle size and polydispersity by dynamic light scattering; settings: LNP of lipid/DSPC/cholesterol/PEG-lipid 50:10:38.5:1.5 encapsulating hEPO mRNA
In short: (§1)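 LNPs made from ionizable lipid/DSPC/cholesterol/PEG-lipid (50:10:38.5:1.5) and mRNA in citrate pH 4 by microfluidic mixing, lipid:mRNA about 10:1–30:1 w/w, then dialysed into DPBS and filtered. Size and PDI measured by DLS in backscatter mode; encapsulation efficiency measured by RiboGreen assay.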

[2] = Encapsulation efficiency of lipid nanoparticles, Quant-it Ribogreen RNA assay; settings: LNP of lipid/DSPC/cholesterol/PEG-lipid 50:10:38.5:1.5 encapsulating hEPO mRNA
In short: as §1

[3] = Apparent pKa of LNP formulations, TNS fluorescence assay; settings: LNP cationic lipid/DSPC/cholesterol/DMG-PEG 50/10/38.5/1.5 mol %
Procedure: As reported in literature, the apparent pKa of LNP formulations correlates with the delivery efficiency of LNPs for nucleic acids in vivo. The apparent pKa of each formulation was determined using an assay based on fluorescence of 2-(p-toluidino)-6-napthalene sulfonic acid (TNS). LNP formulations comprising of cationic lipid/DSPC/cholesterol/DMG-PEG (50/10/38.5/1.5 mol %) in PBS were prepared as described above. TNS was prepared as a 300 μM stock solution in distilled water. LNP formulations were diluted to 0.1 mg/mL total lipid in 3 mL of buffered solutions containing 50 mM sodium citrate, 50 mM sodium phosphate, 50 mM sodium borate, and 30 mM sodium chloride where the pH ranged from 3 to 9. An aliquot of the TNS solution was added to give a final concentration of […] and following vortex mixing fluorescence intensity was measured at room temperature in a Molecular Devices Spectramax iD3 spectrometer using excitation and mission wavelengths of 325 nm and 435 nm. A sigmoidal best fit analysis was applied to the fluorescence data and the pKa value was measured as the pH giving rise to half-maximal fluorescent intensity.

Row | SMILES | polydispersity [1] | size (nm) [1] [nm] | Encapsulation Efficiency [2] [%] | Apparent Pka [3]
1 | CCCCCCCCC(CCCCCCCC)CC(=O)NCCCCCN(CCO)CCN(CCCCCNC(=O)CC(CCCCCCCC)CCCCCCCC)C1CCC1 [Compound 60] | 0.039 | 59.89 | 91.7 | 6.761
2 | CCCCCCCCC(CCCCCCCC)CC(=O)NCCCCCN(CCN(CCO)CCCCCOC(=O)CC(CCCCCCCC)CCCCCCCC)C1CCC1 [Compound 61] | 0.026 | 66.08 | 95.4 | 6.731
3 | CCCCCCCCC(CCCCCCCC)CC(=O)OCCCCCN(CCO)CCN(CCCCCOC(=O)CC(CCCCCCCC)CCCCCCCC)C1CCC1 [Compound 62] | 0.034 | 68.28 | 92.0 | 6.21
4 | CCCCCCCCC(CCCCCCCC)COC(=O)/C=C/CN(CCO)CCN(CCCCCC(=O)OCC(CCCCCCCC)CCCCCCCC)C1CCC1 [Compound 63] | 0.044 | 87.84 | 93.93 | 6.147
5 | CCCCCCCCC(CCCCCCCC)COC(=O)CCCCCN(C)C1CCC(N(CCO)CCCCCC(=O)OCC(CCCCCCCC)CCCCCCCC)CC1 (stereo not shown) [Compound 64] | 0.177 | 81.36 | 97.95 | 7.262
6 | CCCCCCCCC(CCCCCCCC)COC(=O)CCCCCN(C/C=C/CN(CCCCCC(=O)OCC(CCCCCCCC)CCCCCCCC)C1CCC1)CCO [Compound 65] | 0.044 | 104.2 | 93.10 | 6.443
7 | CCCCCCCCC(CCCCCCCC)COC(=O)CCCCCN(CCO)CCN(CCCCCC(=O)OCC(CCCCCCCC)CCCCCCCC)C1CCC(F)(F)CC1 [Compound 66] | 0.068 | 56.3 | 93.17 | 6.009
8 | CCCCCCCCC(CCCCCCCC)COC(=O)CCCCCN(CCO)CCN(CCCCCC(=O)OCC(CCCCCCCC)CCCCCCCC)C1CC(OC)C1 (stereo not shown) [Compound 67] | 0.023 | 75.57 | 95.1 | 5.980
9 | CCCCCCCCC(CCCCCCCC)CC(=O)NCCCCCN(CCN(CCO)CCCCCCOC(=O)C(CCCCCC)CCCCCCCC)C1CCC1 (stereo not shown) [Compound 70] | 0.005 | 126 | 91.32 | 6.732
10 | CCCCCCCCC(CCCCCCCC)CC(=O)NCCCCCN(CCN(CCO)CCCCCOC(=O)CC(CCCCCCCC)CCCCCCCC)C1CCCC1 [Compound 72] | 0.033 | 74.18 | 92.60 | 6.633
11 | CCCCCCCCC(CCCCCCCC)CC(=O)NCCCCCN(CCN(CCO)CCCCCOC(=O)CC(CCCCCCCC)CCCCCCCC)C1CCCCC1 [Compound 73] | 0.049 | 88.45 | 92.38 | 6.597
12 | CCCCCCCCC(CCCCCCCC)CNC(=O)CCCCCN(CCN(CCCO)CCCCCC(=O)OCC(CCCCCCCC)CCCCCCCC)C1CCC1 [Compound 76] | 0.036 | 84.12 | 92.30 | 6.322
13 | CCCCCCCCC(CCCCCCCC)CNC(=O)CCCCCN(CCN(CCCCO)CCCCCC(=O)OCC(CCCCCCCC)CCCCCCCC)C1CCC1 [Compound 77] | 0.006 | 84.87 | 92.71 | 6.485
14 | CCCCCCCCC(CCCCCCCC)CNC(=O)CCCCCN(CCN(CCCCCCCCCO)CCCCCC(=O)OCC(CCCCCCCC)CCCCCCCC)C1CCC1 [Compound 78] | 0.019 | 100.3 | 88.18 | 6.195
15 | CCCCCCCCC(CCCCCCCC)COC(=O)CCCCCN(C)CCN(CCCCCC(=O)OCC(CCCCCCCC)CCCCCCCC)CCNc1c(NC)c(=O)c1=O [Compound 79] | 0.104 | 69.09 | 96.26 | 6.914
16 | CCCCCCCCC(CCCCCCCC)COC(=O)CCCCCN(CCNc1c(NC)c(=O)c1=O)CCN(CCCCCC(=O)OCC(CCCCCCCC)CCCCCCCC)C1CCC1 [Compound 81] | 0.051 | 55.27 | 91.82 | 6.298
